Laboratory results taken from patent publication US20240342291A1, “Therapeutic Coordination Polymers Containing Pharmaceuticals for Drug Release Applications” (UNIVERSITY OF WINDSOR, priority 2021, published 2024).

Tests used:
Format in all cases: physicochemical
[1] = Dissolution (drug release) in 0.05 M phosphate buffer pH 6.8
[2] = Intrinsic dissolution rate (IDR) in 0.05M phosphate buffer pH 6.8
[3] = Pharmaceutical loading (relative percentage of diclofenac by mass)
Source text: It has been appreciated that the pharmaceutical loading in the TCPs may be less than that of a commercially available pharmaceutical sodium salt due to the mass of the organic linkers. Provided below is Table I showing a summary for the relative percentages in some of specific diclofenac TCPs. For example, the percent of diclofenac in sodium diclofenac is 93%, whereas the TCPs had loading ranging from 42-70%. The percentage of metal within the TCPs by mass ranged from 2.6-7.9% and the percent of linker by mass ranged from 22-41%. The TCP with EtOH in the name were synthesized in EtOH, all others were synthesized in MeOH. However, it is not strictly required that TCPs be prepared in MeOH and TCPs may be prepared in EtOH instead, or other solvents such as but not limited to: water, acetonitrile, dimethyl sulfoxide, nitromethane, isopropyl alcohol, dimethylformamide or a mixture thereof.

Structure (SMILES)	diclofenac released ([1]; after 1 h) [%]	intrinsic dissolution rate (IDR) [2] [μg cm^−2 min^−1]	percent of diclofenac (loading) [3] [%]	ibuprofen released ([1]; after 5 min) [%]
O=C(O)Cc1ccccc1Nc1c(Cl)cccc1Cl [sodium diclofenac]	100	1161±0.216	93	
CC(C)Cc1ccc(C(C)C(=O)O)cc1.[Na] (stereo not shown) [sodium ibuprofen]				100
